By IC50 is commonly meant the concentration that inhibits the measured activity by half.

The test system of data set [1] is P. falciparum female gametocytes. As to the kind of experiment: P. falciparum female gametogenesis assay (Pf FGAA). The settings on record: 1: YES; 0: NO; >10-fold selectivity over cytotox.
Data set [2] has the same test system. Details: method as in Miguel-Blanco et al 2017. The settings on record: ref Miguel-Blanco et al 2017; read-out: Pf FGAA IC50; cited from earlier work.
The subject of data set [3] is HepG2 cells. As to the kind of experiment: HepG2 cytotoxicity assay. The settings on record: unified HepG2 cytotoxicity across the three screens. The procedure, abridged:
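Here viability after a 48 h compound incubation (37°C, humidified 5% CO2) is measured by fluorescence and expressed as percent inhibition, with doxorubicin at 50 μM and DMSO as the bounding controls.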

Take `Cc1cc2nc(N=C3NC4(c5ccccn5)NC(=Nc5nc6cc(C)c(C)cc6[nH]5)NC4(c4ccccn4)N3)[nH]c2cc1C.O=C(O)C(F)(F)F` (stereo not drawn) [TCMDC-139105]: the “Is compound selective in assay? Pf FGAA active?” value (shortened to “Is compound selective”) in data set [1] is 0 (0: NO). In addition, the IC50 in data set [2] was 5340 nM. In data set [3], this compound gave a Unified cytotox of 35.91 µM.

As to `CN1CCN(c2cc3c(cc2Cl)CCN3C(=O)Nc2ccc(NC(=O)c3ccc(C(F)(F)F)cc3)cc2)CC1.Cl` [TCMDC-139270], the “Is compound selective” value in data set [1] was 0 (0: NO). Also, the IC50 in data set [2] is 690 nM. Also, the Unified cytotox in data set [3] came out at 3.99 µM.

On to `CC(NCCc1cccc(Cl)c1)C(O)c1ccc(OCCCCCCOc2ccc(C(O)C(C)NCCc3cccc(Cl)c3)cc2)cc1` (stereo not drawn) [TCMDC-139334], for which the “Is compound selective” value in data set [1] is 0 (0: NO). Besides, the IC50 in data set [2] is 1000 nM. The Unified cytotox in data set [3] is given as 2.63 µM.

As to `Cc1cc(N)c2cc(NC(=O)/C=C/c3ccc([N+](=O)[O-])cc3)ccc2n1` [TCMDC-139335], in data set [1], the “Is compound selective” value is given as 0 (0: NO). Further, the IC50 in data set [2] was 2690 nM. The compound further came in with a Unified cytotox in data set [3] of 5.37 µM.

In the case of `Cc1cc(N)c2cc(NC(=O)c3cc(C(F)(F)F)cc(C(F)(F)F)c3)ccc2n1.Cl` [TCMDC-139377], the “Is compound selective” value in data set [1] was 0 (0: NO). Further, the IC50 in data set [2] is 860 nM. In data set [3], this compound came in with a Unified cytotox of 2.60 µM.

As to `O=C(Nc1cc(Cl)c(Cl)cc1NC(=O)c1cccc(-c2ccccc2)c1O)c1cccc(-c2ccccc2)c1O` [TCMDC-139548], in data set [1], the “Is compound selective” value is listed as 0 (0: NO). For the same compound, in data set [2], the IC50 was 1090 nM. In data set [3], this compound returned a Unified cytotox of 3.09 µM.

For `COc1ccc2nc(N=C3NC4(c5ccccc5)NC(=Nc5nc6ccc(OC)cc6[nH]5)NC4(c4ccccc4)N3)[nH]c2c1.O=C(O)C(F)(F)F` (stereo not drawn) [TCMDC-139632], in data set [1], the “Is compound selective” value was 1 (1: YES). In data set [2], the IC50 is 120 nM. The compound further had a Unified cytotox in data set [3] of 62.72 µM.

For the compound `CC(Cc1ccc(NS(=O)(=O)c2ccc(CC(C)NCCc3cccc(Cl)c3)cc2)cc1)NCCc1cccc(Cl)c1` (stereo not drawn) [TCMDC-139797], in data set [1], the “Is compound selective” value is given as 0 (0: NO). Further, the IC50 in data set [2] was 1840 nM. Also, the Unified cytotox in data set [3] stood at 4.37 µM.

Regarding `CC(Cc1ccc(NC(=O)c2ccc(CC(C)NCc3ccc(Cl)cc3)cc2)cc1)NCCc1cccc(Cl)c1` (stereo not drawn) [TCMDC-139810], the “Is compound selective” value in data set [1] is 0 (0: NO). Besides, the IC50 in data set [2] was 860 nM. Further, the Unified cytotox in data set [3] worked out at 4.03 µM.

On to `CC(Cc1ccc(NC(=O)c2ccc(CNCCCCc3ccccc3)cc2)cc1)NCCc1cccc(Cl)c1.Cl` (stereo not drawn) [TCMDC-139866], for which the “Is compound selective” value in data set [1] is given as 0 (0: NO). The IC50 in data set [2] is 1120 nM. Besides, the Unified cytotox in data set [3] was determined as 1.97 µM.

For `CC(Cc1ccc(NC(=O)c2ccc(CNCCc3ccccc3)cc2)cc1)NCCc1cccc(Cl)c1.Cl` (stereo not drawn) [TCMDC-139867], the “Is compound selective” value in data set [1] was 0 (0: NO). In data set [2], the IC50 was 2070 nM. In addition, the Unified cytotox in data set [3] stood at 4.17 µM.

As to `CCCCCCCN1CC[C@@H](CCCc2ccnc3ccc(OC)cc23)[C@@H](CNC)C1.O=C(O)C(=O)O` [TCMDC-139875], the “Is compound selective” value in data set [1] is 0 (0: NO). The IC50 in data set [2] is 730 nM. This compound also returned a Unified cytotox in data set [3] of 5.89 µM.

Consider `CN(C)CCCNCc1ccc(-c2ccc(C(F)(F)F)cc2)cc1` [TCMDC-140011], for which the “Is compound selective” value in data set [1] is reported as 0 (0: NO). In data set [2], the IC50 is 1680 nM. In data set [3], this compound gave a Unified cytotox of 4.90 µM.

Consider `COc1cccc(CCNC(C)Cc2ccc(OCCCCOc3ccccc3)cc2)c1` (stereo not drawn) [TCMDC-140020], for which, in data set [1], the “Is compound selective” value is given as 0 (0: NO). Moreover, in data set [2], the IC50 was 1510 nM. The compound also came in with a Unified cytotox in data set [3] of 1.46 µM.

Consider `Nc1ccc2[nH]cc(C3CCN(CC4CCN(C(=O)/C=C/c5ccc(Cl)c(Cl)c5)CC4)CC3)c2n1` [TCMDC-140061], for which the “Is compound selective” value in data set [1] is on record as 0 (0: NO). Besides, in data set [2], the IC50 was 1770 nM. This compound also yielded a Unified cytotox in data set [3] of 5.89 µM.

These data come from paper PMC6753678, “Fueling Open Innovation for Malaria Transmission-Blocking Drugs: Hundreds of Molecules Targeting Early Parasite Mosquito Stages” (Frontiers in Microbiology, 2019).
